The numbers were not newly measured in paper PMC6264278, “Corydaline Inhibits Multiple Cytochrome P450 and UDP-Glucuronosyltransferase Enzyme Activities in Human Liver Microsomes” (Molecules, 2011), which cites them from elsewhere.

Structures are written as SMILES.

In one data set the test system is CYP2D6. Also on record: method as in PMID 21425377, PMID 14570772. The note with it: read-out: IC50, inhibitory effect on CYP2D6 activity; cited from earlier work.
Another data set has as its system UGT1A9. Also on record: method as in PMID 21245288. The following applies: read-out: Ki, UGT1A9 inhibition; cited from earlier work.
A further data set has as its system CYP2C9. The note with it: read-out: IC50, CYP2C9 inhibition; cited from earlier work.

`COc1ccc2cc3[n+](cc2c1OC)CCc1cc2c(cc1-3)OCO2` [berberine]: the IC50 in the data set on CYP2D6 was 49.4 µM.
`O=C(O)c1cccnc1Nc1cccc(C(F)(F)F)c1` [niflumic acid]: in the data set on UGT1A9, the Ki is 0.1 to 0.4 µM.
For the compound `COc1cc2c(cc1OC)-c1cc3ccc(OC)c(OC)c3c[n+]1CC2` [palmatine], in the data set on CYP2D6, the IC50 was 92.6 µM.
Take `Nc1ccc(S(=O)(=O)Nc2ccnn2-c2ccccc2)cc1` [sulfaphenazole]: the IC50 in the data set on CYP2C9 is […].
